# From ChEMBL document CHEMBL4219060, “Discovery of EBI-1051: A novel and orally efficacious MEK inhibitor with benzofuran scaffold” (Bioorg Med Chem, 2018)
# Calls of active or inactive are those of the source. No cut-off for these calls is given here.
# Experiments:
# COLO 205 [1] = assay: Antiproliferative activity against human COLO205 cells harboring BRAF mutant/wild type KRAS/wild type PIK3CA after 72 hrs by CCK8 assay; conditions: COLO 205, 72 h
# [2] = target: Dual specificity mitogen-activated protein kinase kinase 1 (Homo sapiens, UniProt Q02750)
# Description: Inhibition of MEK1 (unknown origin) using Ser/Thr 03 peptide substrate after 4 hrs by fluorescence assay
# [3] = AUC (0 to t) in Sprague-Dawley rat at 10 mg/kg, po via gavage; type: ADME, organism-based; conditions: in vivo
# [4] = Cmax in Sprague-Dawley rat at 10 mg/kg, po via gavage; type: ADME, organism-based; design: dose 10 mg/kg, route oral; conditions: in vivo
# [5] = Half life in Sprague-Dawley rat at 10 mg/kg, po via gavage; type: ADME, organism-based; conditions: in vivo
# [6] = Oral bioavailability in Sprague-Dawley rat at 10 mg/kg via gavage; type: ADME, organism-based; conditions: in vivo
# [7] = Clearance in Sprague-Dawley rat at 2 mg/kg, iv; type: ADME, organism-based; conditions: in vivo
# [8] = Volume of distribution at steady state in Sprague-Dawley rat at 2 mg/kg, iv; type: ADME, organism-based; conditions: in vivo, read-out: Vdss
# MDA-MB-231 = assay: Antiproliferative activity against human MDA-MB-231 cells harboring KRAS mutant/wild type BRAF/PIK3CA after 72 hrs by CCK8 assay; type: functional, cell-based
# Mus musculus = assay: Toxicity in athymic nude mouse xenografted with human COLO205 cells assessed as body weight loss at 10 mg/kg, po qd for 14 days measured twice per week during compound dosing; type: organism-based; conditions: in vivo, 336 h
# COLO 205 [9] = assay: Antitumor activity against human COLO205 cells xenografted in athymic nude mouse assessed as tumor growth inhibition at 10 mg/kg, po qd for 14 days measured twice per week during compound dosing relative to control; conditions: COLO 205, po, 336 h, read-out: TGI
# A549 = assay: Antiproliferative activity against human A549 cells harboring KRAS mutant/wild type BRAF/PIK3CA after 72 hrs by CCK8 assay; type: functional, cell-based
# DLD-1 = assay: Antiproliferative activity against human DLD1 cells harboring KRAS mutant/wild type BRAF/PIK3CA D549N mutant after 72 hrs by CCK8 assay; type: functional, cell-based
# SW480 = assay: Antiproliferative activity against human SW480 cells harboring KRAS mutant/wild type BRAF/PIK3CA after 72 hrs by CCK8 assay; type: functional, cell-based
# HT-29 = assay: Antiproliferative activity against human HT-29 cells harboring BRAF mutant/PIK3CA mutant/wild type KRAS after 72 hrs by CCK8 assay; type: functional, cell-based
# HeLa = assay: Antiproliferative activity against human HeLa cells harboring wild type BRAF/KRAS/PIK3CA after 72 hrs by CCK8 assay; type: functional, cell-based
# Calu-6 = assay: Antiproliferative activity against human Calu6 cells harboring KRAS mutant/wild type BRAF/PIK3CA after 72 hrs by CCK8 assay; type: functional, cell-based
# NCI-H1299 = assay: Antiproliferative activity against human NCI-H1299 cells harboring wild type BRAF/KRAS/PIK3CA after 72 hrs by CCK8 assay; type: functional, cell-based
# U-937 = assay: Antiproliferative activity against human U937 cells harboring wild type BRAF/KRAS/PIK3CA after 72 hrs by CCK8 assay; type: functional, cell-based
# Dual specificity mitogen-activated protein kinase kinase 1, sequence (Q02750 whole entry): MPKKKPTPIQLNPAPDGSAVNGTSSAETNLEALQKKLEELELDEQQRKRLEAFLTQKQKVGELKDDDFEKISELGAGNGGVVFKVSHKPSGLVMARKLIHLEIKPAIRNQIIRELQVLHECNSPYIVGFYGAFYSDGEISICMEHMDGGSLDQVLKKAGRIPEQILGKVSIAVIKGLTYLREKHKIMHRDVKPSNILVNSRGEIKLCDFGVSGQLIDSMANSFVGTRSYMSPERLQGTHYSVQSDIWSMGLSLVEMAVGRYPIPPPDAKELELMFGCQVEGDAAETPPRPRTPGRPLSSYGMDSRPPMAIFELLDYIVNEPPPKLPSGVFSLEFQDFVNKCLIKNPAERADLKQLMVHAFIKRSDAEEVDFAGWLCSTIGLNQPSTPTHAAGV
smiles,measurement,setting,value
O=C(NOCCO)c1cc2c(c(F)c1Nc1ccc(Br)cc1Cl)OCC2,IC50,COLO 205 [1],> 1000 nM
O=C(NC[C@@H](O)CO)c1cc2c(c(F)c1Nc1ccc(I)cc1F)OCC2,IC50,[2],> 1000 nM
O=C(c1cc2c(c(F)c1Nc1ccc(I)cc1F)OCC2)N1C[C@@H](O)CO1,IC50,COLO 205 [1],> 1000 nM
same,IC50,[2],> 1000 nM
O=C(NOC[C@H](O)CO)c1cc2ccoc2c(F)c1Nc1ccc(I)cc1F,IC50,COLO 205 [1],2.5 nM
same,AUC(0-t),[3],2860 ng·h/mL
same,Cmax,[4],695 ng/mL
same,half-life,[5],204 min
O=C(NOC[C@H](O)CO)c1cc2c(c(F)c1Nc1ccc(I)cc1F)OCC2,IC50,COLO 205 [1],7.2 nM
same,AUC(0-t),[3],1470 ng·h/mL
same,bioavailability,[6],62%
same,Cmax,[4],342 ng/mL
same,half-life,[5],120 min
same,clearance,[7],73.6 mL/min/kg
same,Vd,[8],9.4 L/kg
O=C(NOCCO)c1cc2c(c(F)c1Nc1ccc(I)cc1F)OCC2,IC50,COLO 205 [1],10 nM
O=C(NOCCO)c1cc2ccoc2c(F)c1Nc1ccc(I)cc1F,IC50,COLO 205 [1],2.9 nM
same,AUC(0-t),[3],8370 ng·h/mL
same,Cmax,[4],2080 ng/mL
same,half-life,[5],102 min
CC(C)(CO)ONC(=O)c1cc2ccoc2c(F)c1Nc1ccc(I)cc1F,IC50,COLO 205 [1],12 nM
O=C(NOC[C@@H](O)CO)c1cc2c(c(F)c1Nc1ccc(I)cc1F)OCC2,IC50,COLO 205 [1],90.1 nM
O=C(NOCCO)c1cc2c(cc1Nc1ccc(I)cc1F)OCC2,IC50,COLO 205 [1],> 1000 nM
O=C(NOCCO)c1cc2c(c(Cl)c1Nc1ccc(I)cc1F)OCC2,IC50,COLO 205 [1],38.4 nM
O=C(NC[C@H](O)CO)c1cc2c(c(F)c1Nc1ccc(I)cc1F)OCC2,IC50,[2],> 1000 nM
Cn1cnc2c(F)c(Nc3ccc(Br)cc3Cl)c(C(=O)NOCCO)cc21 [SELUMETINIB],Activity,MDA-MB-231,inactive
same,Activity,Mus musculus,Non-Toxic
same,IC50,COLO 205 [1],59 nM
same,inhibition in vivo at 10 mg/kg,COLO 205 [9],60%
same,Activity,A549,inactive
O=C(NOCCCO)c1cc2ccoc2c(F)c1Nc1ccc(I)cc1F,IC50,COLO 205 [1],76.5 nM
O=C(NOC(CO)CO)c1cc2ccoc2c(F)c1Nc1ccc(I)cc1F,Activity,MDA-MB-231,Active
same,Activity,DLD-1,Active
same,Activity,Mus musculus,Non-Toxic
same,IC50,COLO 205 [1],4.7 nM
same,Activity,SW480,Active
same,AUC(0-t),[3],43300 ng·h/mL
same,inhibition in vivo at 10 mg/kg,COLO 205 [9],78%
same,Activity,HT-29,Active
same,Activity,HeLa,inactive
same,Activity,A549,Active
same,bioavailability,[6],80%
same,Activity,Calu-6,Active
same,Cmax,[4],13600 ng/mL
same,half-life,[5],150 min
same,Activity,NCI-H1299,inactive
same,clearance,[7],3.4 mL/min/kg
same,Vd,[8],0.8 L/kg
same,Activity,U-937,inactive
